# Values joined by “and” are separate entries in the source; they are usually repeats but may differ in a detail not shown here. Equal values may be shown once.
# How the values were obtained:
# [1] = tested on: Viral leukosis Mazurenko LMC-1; assay: Antitumor effect on grafted hemoblastoses (LMC-1), extension of lifespan; assay type: in vivo, mice and rats; conditions: in vivo
# [2] = tested on: adrenalectomized rat youngsters; assay: Lifespan of adrenalectomized rat youngsters (biological test for the glucocorticoidal activity); assay type: in vivo; conditions: 25-days adrenalectomized rats
# [3] = tested on: Hepatoma G-61; assay: Antitumor effect on grafted hepatoma G-61; assay type: in vivo, mice and rats; conditions: in vivo
# [4] = tested on: P-388; assay: Antitumor effect on grafted hemoblastoses (P-388), extension of lifespan; assay type: in vivo, mice and rats; conditions: in vivo
# [5] = tested on: Alveolar mammary cancer RMK-1; assay: Antitumor effect on grafted alveolar mammary cancer RMK-1; assay type: in vivo, mice and rats; conditions: in vivo
# [6] = in vivo; conditions: mouse
# [7] = tested on: La; set-up: species or system mice and rats; conditions: in vivo
# [8] = tested on: Hepatoma G-22c; assay: Antitumor effect on grafted hepatoma G-22c; assay type: in vivo, mice and rats; conditions: in vivo
# [9] = tested on: animals; assay: Estral response in animals; conditions: in vivo
# Text: The hormonal effect of 11-desoxy-17α-hydroxy-21-[p-di-(2-chloroethyl)aminophenylacetate] corticosterone is associated with exhibition of a glucocorticoidal activity thereby.
# [10] = tested on: Hepatoma G-60; assay: Antitumor effect on grafted hepatoma G-60; assay type: in vivo, mice and rats; conditions: in vivo
# [11] = tested on: Lewis lung carcinoma LL; assay: Antitumor effect on grafted Lewis lung carcinoma LL; assay type: in vivo, mice and rats; conditions: in vivo
# [12] = tested on: DMBA-induced mammary tumors of rats; assay: Effect on DMBA-induced breast tumors in repeated treatment courses; assay type: in vivo
# Text: (§1) For the study of the antitumor activity of the compounds according to the present invention use was made of regrafted hemoblastoses, grafted solid tumors, induced and spontaneous tumors of mice and rats. The following models were used: L 1210, P-388, hemocytoblastosis La, MOPC-406, viral lympholeukosis Mazurenko LMC-1, Ca-755, mammary carcinoma metastasizing into lungs KML, alveolar mammary cancer RMK-1, small intenstine adenocarcinoma AKATON, large intestine adenocarcinoma AKATOL, Lewis lung carcinoma LL, lung adenocarcinoma RL-67, hepatomae G-22c, G-60, G-61, sarcomae S-37 and S-180, DMBA (dimethylbenzanthracene)-induced and spontaneous mammary tumors, and […] (dimethylhydrazine)-induced tumors of the large intestine.
# (§2) The compounds were administered to the animals hypodermally in kernel oil. For the purpose of comparison, a known hormonocytostatic estracyte (estra-1,3,5-(10)treine-3,17β-diol-3N-[bis-(2-chloroethyl)carbamate-17-sodium phosphate] was used which was administered hypodermally in a solution of a 0.9% NaCl, chlorphenacyl and chloroambucyl which were administered intraperitoneally in a 10% solution of ethanol, sarcolysine (β-[p-di(2-chloroethyl)aminophenyl]-α-alanine hydrochloride)--intraperitoneally in a 0.9% solution of NaCl, prednisolone (pregnadiene-1,4-triol-11β,17α,21-dione-3,20)--per os in a starch size.
# (§3) Criteria of the antitumor activity of the compounds according to the present invention are: extension of the lifespan of the animals (ELA, %) and tumor growth inhibition (TGI, %). [formula] T--average lifespan of the treated animals; C--average lifespan of the control animals. [formula] O--average tumor volume in the group of treated animals; K--average tumor volume in the group of control animals.
# In the case of using spontaneous or induced tumors, by means of carcinogenic substances, the criteria of the antitumor effect are: TGI, % or decrease in the tumor size, %, as compared to its initial value. The treatment of spontaneous and induced tumors was initiated after achieving, by these tumors, of a particular size excluding the possibility of a spontaneous regression.
# [13] = tested on: receptors of glucocorticoids in grafted tumors of animals (RL-67, G-60, G-61, G-22c, Ca-755, S-37, AKATOL, AKATON); assay: Inhibition of specific combining of [^3 H]-dexamethazone in grafted tumors of animals; assay type: binding
# Text: The inhibition, thereby, of a specific combining of [^3 H]-dexamethazone in tumors of animals reaches 70-100%. 11-Desoxy-17-α-hydroxy-21-[p-di(2-chloroethyl)aminophenylacetate] corticosterone also reacts with cytoplasmatic receptors of glucocorticoids in tumors in human beings.
# [14] = tested on: DNA of sarcoma S-37 cells; assay: Cross-linking and ruptures in DNA of tumoral cells (alkaline saccharose gradient sedimentation)
# [15] = tested on: S-37; assay: Antitumor effect on grafted solid tumor S-37; assay type: in vivo, mice and rats; conditions: in vivo
# [16] = tested on: grafted hemoblastoses and solid tumors; assay: Antitumor activity, summary over the tumor models; assay type: in vivo, mice and rats
# Text: as §1
# (§4) The studies were carried out on line mice and their first-generation hybrids, as well as on mongrel mice and rats.
# as §2, §3
# [17] = tested on: DNA of normal (spleen) cells; assay: Regeneration of injured DNA in normal tissue vs tumor tissue; conditions: compared with tumor tissue
# [18] = tested on: Breast carcinoma metastasizing into lungs KML; assay: Duration of the antitumor effect, breast carcinoma KML; assay type: in vivo, mice and rats
# Text: as §1, §4, §2, §3
# [19] = tested on: S-180; set-up: species or system mice and rats; conditions: in vivo
# [20] = tested on: mice; conditions: mouse, in vivo
# [21] = tested on: Large intestine adenocarcinoma AKATOL; assay: Antitumor effect on grafted large intestine adenocarcinoma AKATOL; assay type: in vivo, mice and rats; conditions: in vivo
# [22] = Toxicological study, limiting toxicity
# [23] = tested on: Lung adenocarcinoma RL-67; assay: Duration of the antitumor effect, lung adenocarcinoma RL-67; assay type: in vivo, mice and rats
# Text: as §1, §4, §2, §3
structure (smiles),measurement,setting,value
C[C@]12CCC(=O)C=C1CC[C@@H]1[C@@H]2CC[C@@]2(C)[C@H]1CC[C@]2(O)C(=O)COC(=O)Cc1ccc(N(CCCl)CCCl)cc1 [11-desoxy-17α-hydroxy-21-[p-di(2-chloroethyl)-aminophenylacetate] corticosterone],Extension of the lifespan of the animals (ELA),[1],344%
same,cure,[1],33%
same,extension of lifespan of adrenalectomized rat youngsters,[2],113%
same,Maximum tumor growth inhibition,[3],89%
same,Extension of the lifespan of the animals (ELA),[4],81%
same,Maximum tumor growth inhibition,[5],59%
same,LD50,[6],80 mg/kg
same,MTD,[6],44 mg/kg
same,Extension of the lifespan of the animals (ELA),[7],105%
same,Extension of the lifespan,[8],65%
same,Maximum tumor growth inhibition,[8],80%
same,Tumor growth inhibition,[8],80% and 68% and 57%
same,estral response,[9],short-time estral response
same,Maximum tumor growth inhibition,[10],99%
same,Maximum tumor growth inhibition,[11],81%
same,Extension of the lifespan,[11]; 15 mg/kg,38%
same,Tumor growth inhibition,[11]; 15 mg/kg,76% and 56% and 39%
same,Maximum tumor growth inhibition,[11]; 45 mg/kg,90%
same,Increased lifespan,"[12]; DMBA-induced, rats, 15 mg/kg/24 h × 5, 2 courses, 5 weeks interval",18%
same,"Decrease or increase (+) of the tumor, % of the initial one","[12]; DMBA-induced, rats, 15 mg/kg/24 h × 5, 2 courses, 5 weeks interval, week 1",33%
same,"Decrease or increase (+) of the tumor, % of the initial one","[12]; DMBA-induced, rats, 15 mg/kg/24 h × 5, 2 courses, 5 weeks interval, week 2",32%
same,"Decrease or increase (+) of the tumor, % of the initial one","[12]; DMBA-induced, rats, 15 mg/kg/24 h × 5, 2 courses, 5 weeks interval, week 3",11%
same,"Decrease or increase (+) of the tumor, % of the initial one","[12]; DMBA-induced, rats, 15 mg/kg/24 h × 5, 2 courses, 5 weeks interval, week 4",24%
same,"Decrease or increase (+) of the tumor, % of the initial one","[12]; DMBA-induced, rats, 15 mg/kg/24 h × 5, 2 courses, 5 weeks interval, week 5",+26%
same,"Decrease or increase (+) of the tumor, % of the initial one","[12]; DMBA-induced, rats, 15 mg/kg/24 h × 5, 2 courses, 5 weeks interval, week 6",23%
same,"Decrease or increase (+) of the tumor, % of the initial one","[12]; DMBA-induced, rats, 15 mg/kg/24 h × 5, 2 courses, 5 weeks interval, week 7",+3%
same,"Decrease or increase (+) of the tumor, % of the initial one","[12]; DMBA-induced, rats, 15 mg/kg/24 h × 5, 2 courses, 5 weeks interval, week 8",13%
same,reduction in size of induced tumors in breasts,[12]; compared to the size prior to the treatment,causes reduction in size of induced and spontaneous tumors
same,reaction with receptors of glucocorticoids in grafted tumors,"[13]; RL-67, G-60, G-61, G-22c, Ca-755, S-37, AKATOL, AKATON",reacts with receptors of glucocorticoids in grafted tumors of animals
same,inhibition of specific combining of [^3 H]-dexamethazone,[13]; tumors of animals,70-100%
same,number and duration of retention of cross-linking in DNA molecules of S-37 cells,[14],superior to chlorophenacyl
same,Extension of the lifespan,[15],42%
same,Maximum tumor growth inhibition,[15],99%
same,Tumor growth inhibition,[15],99% and 94% and 91%
same,recovery,[15],28%
same,Maximum tumor growth inhibition,[15]; 45 mg/kg,99%
same,inhibits growth of substantially all tumors,"[16]; Table 2 summary, grafted solid tumors",80-99%
same,duration of tumor growth inhibition after completion of the treatment course,[16]; Table 3 summary,≥ 1 month
same,extension of the lifespan of the animals as compared to the control,[16]; Table 3 summary,27-73%
same,antitumor effect compared with reference agents,[16]; in vivo,"considerably superior, as regards its activity on numerous models, over the known alkylating preparation sarcolysine"
same,regeneration of injured DNA in normal tissue,[17],starts earlier than in the tumor tissue
same,Extension of the lifespan,"[18]; 45 mg/kg × 1, day 10",57%
same,Tumor growth inhibition,"[18]; 45 mg/kg × 1, day 10, day 15 of experiment",80%
same,Tumor growth inhibition,"[18]; 45 mg/kg × 1, day 10, day 22 of experiment",53%
same,Tumor growth inhibition,"[18]; 45 mg/kg × 1, day 10, day 29 of experiment",61%
same,Maximum tumor growth inhibition,[19],93% and 92%
same,toxicity lower than that of chlorophenacyl,[20],3 times
same,Maximum tumor growth inhibition,[21],98%
same,limiting toxicity,[22]; degree depends on the dose,"gastroenteral and neurotoxicity (diarrhea, vomition, convulsions)"
same,hematotoxicity,"[22]; mouse, in vivo",does not restrict the administration
same,Extension of the lifespan,"[23]; 45 mg/kg × 1, day 2",27%
same,Tumor growth inhibition,"[23]; 45 mg/kg × 1, day 2, day 15 of experiment",81%
same,Tumor growth inhibition,"[23]; 45 mg/kg × 1, day 2, day 22 of experiment",82%
same,Tumor growth inhibition,"[23]; 45 mg/kg × 1, day 2, day 29 of experiment",80%

# Reference: patent US4933332A, “11-desoxy-17-α-hydroxycorticosterone derivatives” (priority 1988, dated 1990)
